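Cultured in 96-well plates, cells were exposed to test compound for 48 hours across five concentrations. GI50 = concentration required for 50% inhibition of growth. At the TGI there is no net growth.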
Experiments:
Assay in all cases: NCI-60 cell line screen, 48 h
[1] = tested on: SK-OV-3 ovarian
[2] = tested on: SK-MEL-5 melanoma
[3] = tested on: HOP-92 NSCLC
[4] = tested on: HS 578T breast
[5] = tested on: UO-31 renal
[6] = tested on: HCT-116 colon
[7] = tested on: OVCAR-3 ovarian
[8] = tested on: MOLT-4 leukemia
[9] = tested on: UACC-257 melanoma
[10] = tested on: SF-295 CNS
[11] = tested on: IGROV1 ovarian
[12] = tested on: M14 melanoma
[13] = tested on: MDA-MB-231 breast
[14] = tested on: BT-549 breast
[15] = tested on: SK-MEL-2 melanoma
[16] = tested on: A549 NSCLC
[17] = tested on: SF-539 CNS
[18] = tested on: LOX IMVI melanoma
[19] = tested on: 786-0 renal
[20] = tested on: SR leukemia
[21] = tested on: NCI-H23 lung
[22] = tested on: SK-MEL-28 melanoma
[23] = tested on: HCC-2998 colon
[24] = tested on: SW-620 colon
[25] = tested on: RXF 393 renal
[26] = tested on: ACHN renal
[27] = tested on: MCF7 breast
[28] = tested on: COLO 205 colon
[29] = tested on: U251 CNS
[30] = tested on: EKVX NSCLC
[31] = tested on: K-562 leukemia
[32] = tested on: TK-10 renal
[33] = tested on: RPMI-8226 leukemia
[34] = tested on: DU-145 prostate
[35] = tested on: OVCAR-4 ovarian
[36] = tested on: NCI-H226 lung
[37] = tested on: NCI/ADR-RES ovarian
[38] = tested on: NCI-H460 lung
[39] = tested on: T-47D breast
[40] = tested on: KM12 colon
[41] = tested on: PC-3 prostate
[42] = tested on: HCT-15 colon
[43] = tested on: A498 renal
[44] = tested on: SN12C renal
[45] = tested on: SNB-19 CNS
[46] = tested on: NCI-H522 lung
[47] = tested on: OVCAR-8 ovarian
[48] = tested on: HOP-62 NSCLC
[49] = tested on: CAKI-1 renal
[50] = tested on: HL-60(TB) leukemia
[51] = tested on: MDA-MB-435
[52] = tested on: SF-268 CNS
[53] = tested on: UACC-62 melanoma
[54] = tested on: SNB-75 CNS
[55] = tested on: HT29 colon
[56] = tested on: CCRF-CEM leukemia

**Q.** What does the source list for `CS(=O)/C(C#N)=C\C=C\c1cccc(Cl)c1` (configuration not stated)?
**A.** GI50 [1]: 10.6 µM; TGI [1]: 26.4 µM; GI50 [2]: 1.87 µM; TGI [2]: 3.96 µM; GI50 [3]: 2.93 µM; TGI [3]: 7 µM; GI50 [4]: 13.1 µM; TGI [4]: 52.6 µM; GI50 [5]: 1.97 µM; TGI [5]: 6.56 µM; GI50 [6]: 1.12 µM; TGI [6]: 4.73 µM; GI50 [7]: 2.45 µM; TGI [7]: 10.1 µM; GI50 [8]: 2.54 µM; TGI [8]: 16.4 µM; GI50 [9]: 2.41 µM; TGI [9]: 12.2 µM; GI50 [10]: 3.05 µM; TGI [10]: 10.7 µM; GI50 [11]: 2.08 µM; TGI [11]: 10.3 µM; GI50 [12]: 2.57 µM; TGI [12]: 11.2 µM; GI50 [13]: 2.73 µM; TGI [13]: 11.7 µM; GI50 [14]: 2 µM; TGI [14]: 11.9 µM; GI50 [15]: 4.44 µM; TGI [15]: 19.1 µM; GI50 [16]: 2.99 µM; TGI [16]: 16.8 µM; GI50 [17]: 1.79 µM; TGI [17]: 7.5 µM; GI50 [18]: 1.31 µM; TGI [18]: 2.73 µM; GI50 [19]: 3.21 µM; TGI [19]: 12.2 µM; GI50 [20]: 0.636 µM; TGI [20]: > 100 µM; GI50 [21]: 1.63 µM; TGI [21]: 4.96 µM; GI50 [22]: 2.68 µM; TGI [22]: 9.78 µM; GI50 [23]: 1.8 µM; TGI [23]: 3.3 µM; GI50 [24]: 2.71 µM; TGI [24]: 11.6 µM; GI50 [25]: 2 µM; TGI [25]: 3.9 µM; GI50 [26]: 2.78 µM; TGI [26]: 10.4 µM; GI50 [27]: 0.579 µM; TGI [27]: 5.72 µM; GI50 [28]: 2.25 µM; TGI [28]: 4.44 µM; GI50 [29]: 1.71 µM; TGI [29]: 7.81 µM; GI50 [30]: 3.66 µM; TGI [30]: 16.7 µM; GI50 [31]: 2.51 µM; TGI [31]: > 100 µM; GI50 [32]: 5.59 µM; TGI [32]: 17.5 µM; GI50 [33]: 2.44 µM; TGI [33]: 12 µM; GI50 [34]: 1.45 µM; TGI [34]: 3.32 µM; GI50 [35]: 3.63 µM; TGI [35]: 21.1 µM; GI50 [36]: 5.02 µM; TGI [36]: 20.3 µM; GI50 [37]: 2.66 µM; TGI [37]: 37.7 µM; GI50 [38]: 2.41 µM; TGI [38]: 11.2 µM; GI50 [39]: 2.67 µM; TGI [39]: 17 µM; GI50 [40]: 1.42 µM; TGI [40]: 4 µM; GI50 [41]: 2.68 µM; TGI [41]: 12.8 µM; GI50 [42]: 1.11 µM; TGI [42]: 4.04 µM; GI50 [43]: 12.4 µM; TGI [43]: 25 µM; GI50 [44]: 2.74 µM; TGI [44]: 12.2 µM; GI50 [45]: 1.81 µM; TGI [45]: 5.54 µM; GI50 [46]: 1.96 µM; TGI [46]: 5.65 µM; GI50 [47]: 3.78 µM; TGI [47]: 17.9 µM; GI50 [48]: 4.56 µM; TGI [48]: 16.2 µM; GI50 [49]: 2.06 µM; TGI [49]: 13.4 µM; GI50 [50]: 2.38 µM; TGI [50]: 7.61 µM; GI50 [51]: 2.34 µM; TGI [51]: 10.6 µM; GI50 [52]: 2.46 µM; TGI [52]: 14.5 µM; GI50 [53]: 1.18 µM; TGI [53]: 3.54 µM; GI50 [54]: 7.11 µM; TGI [54]: 37.4 µM; GI50 [55]: 3.26 µM; TGI [55]: 13.7 µM; GI50 [56]: 2.34 µM; TGI [56]: 18.7 µM

Source: PubChem BioAssay (NCI)
